Test results from ChEMBL document CHEMBL4507268 (2021).

Tests used:
Conditions in all cases: Compound concentration 1.0 uM
[1] = target: Platelet-derived growth factor receptor beta (Homo sapiens) (UniProt P09619)
[2] = target: Tyrosine-protein kinase Fes/Fps (Homo sapiens) (UniProt P07332)
[3] = target: MAP kinase-interacting serine/threonine-protein kinase 2 (Homo sapiens) (UniProt Q9HBH9)
[4] = target: Tyrosine-protein kinase receptor UFO (Homo sapiens) (UniProt P30530)
[5] = target: Serine/threonine-protein kinase N2 (Homo sapiens) (UniProt Q16513)
Serine/threonine-protein kinase N2 (Homo sapiens), sequence (Q16513 whole entry, looked up): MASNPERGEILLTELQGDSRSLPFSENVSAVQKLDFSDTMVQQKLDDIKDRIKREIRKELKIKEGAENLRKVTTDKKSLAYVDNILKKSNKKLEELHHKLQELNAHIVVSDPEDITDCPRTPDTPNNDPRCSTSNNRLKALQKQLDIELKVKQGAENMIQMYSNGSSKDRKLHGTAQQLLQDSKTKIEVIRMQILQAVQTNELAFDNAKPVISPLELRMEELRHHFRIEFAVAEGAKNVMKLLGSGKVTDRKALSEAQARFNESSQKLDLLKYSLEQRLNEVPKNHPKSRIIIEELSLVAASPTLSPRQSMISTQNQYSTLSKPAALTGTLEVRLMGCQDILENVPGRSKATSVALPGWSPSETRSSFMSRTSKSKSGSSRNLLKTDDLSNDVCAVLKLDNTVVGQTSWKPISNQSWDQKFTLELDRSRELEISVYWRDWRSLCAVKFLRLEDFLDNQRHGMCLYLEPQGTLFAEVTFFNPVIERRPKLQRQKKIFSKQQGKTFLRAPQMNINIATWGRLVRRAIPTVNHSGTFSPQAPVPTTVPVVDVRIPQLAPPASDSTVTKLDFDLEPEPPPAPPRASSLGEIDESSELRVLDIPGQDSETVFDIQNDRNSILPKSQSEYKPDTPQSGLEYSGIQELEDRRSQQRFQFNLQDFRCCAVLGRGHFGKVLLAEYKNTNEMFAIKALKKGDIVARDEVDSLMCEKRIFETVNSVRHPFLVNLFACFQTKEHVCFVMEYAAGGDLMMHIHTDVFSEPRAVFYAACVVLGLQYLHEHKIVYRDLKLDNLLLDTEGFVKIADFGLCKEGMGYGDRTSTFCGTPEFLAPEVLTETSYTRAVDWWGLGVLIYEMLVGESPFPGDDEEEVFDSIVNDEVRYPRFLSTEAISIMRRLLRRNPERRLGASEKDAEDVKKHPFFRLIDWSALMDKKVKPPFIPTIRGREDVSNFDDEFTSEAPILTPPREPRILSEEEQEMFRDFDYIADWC

[6] = target: Calcium/calmodulin-dependent protein kinase type 1D (Homo sapiens) (UniProt Q8IU85)
Calcium/calmodulin-dependent protein kinase type 1D (Homo sapiens), sequence (Q8IU85 whole entry, looked up): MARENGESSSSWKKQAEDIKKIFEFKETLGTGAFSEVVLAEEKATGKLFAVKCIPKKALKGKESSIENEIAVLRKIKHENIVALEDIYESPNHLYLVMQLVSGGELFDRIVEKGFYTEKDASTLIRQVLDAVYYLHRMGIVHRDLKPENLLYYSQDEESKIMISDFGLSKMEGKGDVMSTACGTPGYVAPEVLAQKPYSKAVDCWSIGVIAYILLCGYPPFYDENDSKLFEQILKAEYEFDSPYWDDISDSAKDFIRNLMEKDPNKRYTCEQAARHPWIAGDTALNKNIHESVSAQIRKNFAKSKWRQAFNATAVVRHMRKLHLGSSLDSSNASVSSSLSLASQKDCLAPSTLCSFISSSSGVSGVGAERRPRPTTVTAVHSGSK

[7] = target: Calcium/calmodulin-dependent protein kinase type II subunit beta (Homo sapiens) (UniProt Q13554)
[8] = target: Casein kinase I isoform gamma-3 (Homo sapiens) (UniProt Q9Y6M4)
[9] = target: T1, Serine/threonine-protein kinase Sgk2 (Homo sapiens) (UniProt Q9HBY8)
T1 sequence (whole entry): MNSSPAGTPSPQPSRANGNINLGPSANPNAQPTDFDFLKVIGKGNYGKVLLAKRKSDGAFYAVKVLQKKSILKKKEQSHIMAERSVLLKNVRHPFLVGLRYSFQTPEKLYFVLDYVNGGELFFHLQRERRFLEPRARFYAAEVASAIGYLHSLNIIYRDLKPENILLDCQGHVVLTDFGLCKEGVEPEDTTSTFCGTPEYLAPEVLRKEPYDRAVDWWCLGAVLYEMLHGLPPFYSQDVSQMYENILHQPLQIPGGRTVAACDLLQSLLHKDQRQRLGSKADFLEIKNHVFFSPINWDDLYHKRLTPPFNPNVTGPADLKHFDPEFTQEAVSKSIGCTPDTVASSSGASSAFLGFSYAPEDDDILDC

[10] = target: T2, Mitogen-activated protein kinase kinase kinase kinase 3 (Homo sapiens) (UniProt Q8IVH8)
T2 sequence (whole entry): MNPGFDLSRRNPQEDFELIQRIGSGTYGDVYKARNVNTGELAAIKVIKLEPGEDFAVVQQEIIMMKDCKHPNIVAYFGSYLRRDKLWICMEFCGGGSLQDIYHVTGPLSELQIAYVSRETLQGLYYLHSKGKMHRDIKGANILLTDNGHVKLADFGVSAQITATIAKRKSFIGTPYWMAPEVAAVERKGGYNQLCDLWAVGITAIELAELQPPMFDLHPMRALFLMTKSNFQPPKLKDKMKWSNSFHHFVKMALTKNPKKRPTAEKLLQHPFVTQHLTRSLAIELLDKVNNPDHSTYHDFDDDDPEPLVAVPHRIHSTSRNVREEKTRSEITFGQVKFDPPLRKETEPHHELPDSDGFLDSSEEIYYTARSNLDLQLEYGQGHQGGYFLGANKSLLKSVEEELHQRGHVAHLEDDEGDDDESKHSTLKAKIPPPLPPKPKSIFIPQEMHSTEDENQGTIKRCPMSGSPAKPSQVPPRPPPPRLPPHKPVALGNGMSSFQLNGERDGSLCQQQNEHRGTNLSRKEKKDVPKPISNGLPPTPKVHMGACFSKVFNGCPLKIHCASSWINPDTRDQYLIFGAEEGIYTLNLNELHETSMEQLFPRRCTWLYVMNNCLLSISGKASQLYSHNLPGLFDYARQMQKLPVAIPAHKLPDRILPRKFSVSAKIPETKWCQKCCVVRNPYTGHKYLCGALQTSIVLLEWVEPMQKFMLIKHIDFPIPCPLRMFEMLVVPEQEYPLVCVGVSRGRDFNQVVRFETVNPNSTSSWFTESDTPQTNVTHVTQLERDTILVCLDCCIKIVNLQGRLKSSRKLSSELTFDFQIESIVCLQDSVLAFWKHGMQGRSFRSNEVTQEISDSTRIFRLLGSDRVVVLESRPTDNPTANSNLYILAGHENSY

[11] = target: LIM domain kinase 2 (Homo sapiens) (UniProt P53671)
LIM domain kinase 2 (Homo sapiens), sequence (P53671 whole entry, looked up, the tested form may be a part): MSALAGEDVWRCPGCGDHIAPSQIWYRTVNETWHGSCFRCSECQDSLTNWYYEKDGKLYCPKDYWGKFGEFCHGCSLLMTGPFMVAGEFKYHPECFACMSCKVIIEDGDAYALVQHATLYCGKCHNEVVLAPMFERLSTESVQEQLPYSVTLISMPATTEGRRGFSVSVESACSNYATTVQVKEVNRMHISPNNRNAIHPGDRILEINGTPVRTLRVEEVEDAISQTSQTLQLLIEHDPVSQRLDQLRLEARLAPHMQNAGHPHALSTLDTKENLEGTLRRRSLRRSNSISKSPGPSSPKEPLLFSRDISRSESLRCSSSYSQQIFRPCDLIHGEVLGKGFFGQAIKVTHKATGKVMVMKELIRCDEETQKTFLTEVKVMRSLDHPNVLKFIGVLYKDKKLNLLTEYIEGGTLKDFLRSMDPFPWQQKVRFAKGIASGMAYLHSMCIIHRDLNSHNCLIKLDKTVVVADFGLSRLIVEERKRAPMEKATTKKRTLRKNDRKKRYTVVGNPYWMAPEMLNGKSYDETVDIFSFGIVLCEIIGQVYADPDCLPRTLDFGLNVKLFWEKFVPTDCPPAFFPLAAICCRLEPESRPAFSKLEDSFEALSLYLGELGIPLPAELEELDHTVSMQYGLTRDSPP

[12] = target: T3, Serine/threonine-protein kinase ULK3 (Homo sapiens) (UniProt Q6PHR2)
T3 sequence (whole entry): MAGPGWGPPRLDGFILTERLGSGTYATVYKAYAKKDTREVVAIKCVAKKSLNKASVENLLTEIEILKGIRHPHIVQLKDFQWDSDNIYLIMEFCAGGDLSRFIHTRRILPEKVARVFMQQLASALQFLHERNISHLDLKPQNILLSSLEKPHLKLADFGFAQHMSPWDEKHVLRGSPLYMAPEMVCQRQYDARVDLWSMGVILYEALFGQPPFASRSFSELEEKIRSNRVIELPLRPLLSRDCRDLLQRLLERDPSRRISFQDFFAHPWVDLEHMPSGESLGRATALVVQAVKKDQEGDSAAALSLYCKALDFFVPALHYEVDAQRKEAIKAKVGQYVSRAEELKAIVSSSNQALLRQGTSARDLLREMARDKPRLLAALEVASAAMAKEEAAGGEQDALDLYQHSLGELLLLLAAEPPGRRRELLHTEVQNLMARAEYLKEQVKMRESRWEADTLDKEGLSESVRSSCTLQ

[13] = target: 5'-AMP-activated protein kinase catalytic subunit alpha-2 (Homo sapiens) (UniProt P54646)
5'-AMP-activated protein kinase catalytic subunit alpha-2 (Homo sapiens), sequence (P54646 whole entry, looked up): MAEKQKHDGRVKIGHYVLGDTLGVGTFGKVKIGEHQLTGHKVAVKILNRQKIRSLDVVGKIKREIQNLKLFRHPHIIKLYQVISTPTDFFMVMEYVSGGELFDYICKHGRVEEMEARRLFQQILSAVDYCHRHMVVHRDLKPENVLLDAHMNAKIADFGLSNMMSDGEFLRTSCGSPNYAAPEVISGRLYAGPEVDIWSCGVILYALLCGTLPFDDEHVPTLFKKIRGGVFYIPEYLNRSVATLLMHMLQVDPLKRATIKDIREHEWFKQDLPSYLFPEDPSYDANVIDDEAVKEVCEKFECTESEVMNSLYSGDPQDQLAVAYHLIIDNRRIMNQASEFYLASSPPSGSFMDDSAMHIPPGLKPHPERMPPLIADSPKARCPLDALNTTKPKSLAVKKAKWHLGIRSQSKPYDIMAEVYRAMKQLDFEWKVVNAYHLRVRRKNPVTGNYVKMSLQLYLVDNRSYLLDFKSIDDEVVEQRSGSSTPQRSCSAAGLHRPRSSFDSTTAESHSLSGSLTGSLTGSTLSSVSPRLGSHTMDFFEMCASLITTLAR

[14] = target: T4, Activin receptor type-1B (Homo sapiens) (UniProt P36896)
T4 sequence (whole entry): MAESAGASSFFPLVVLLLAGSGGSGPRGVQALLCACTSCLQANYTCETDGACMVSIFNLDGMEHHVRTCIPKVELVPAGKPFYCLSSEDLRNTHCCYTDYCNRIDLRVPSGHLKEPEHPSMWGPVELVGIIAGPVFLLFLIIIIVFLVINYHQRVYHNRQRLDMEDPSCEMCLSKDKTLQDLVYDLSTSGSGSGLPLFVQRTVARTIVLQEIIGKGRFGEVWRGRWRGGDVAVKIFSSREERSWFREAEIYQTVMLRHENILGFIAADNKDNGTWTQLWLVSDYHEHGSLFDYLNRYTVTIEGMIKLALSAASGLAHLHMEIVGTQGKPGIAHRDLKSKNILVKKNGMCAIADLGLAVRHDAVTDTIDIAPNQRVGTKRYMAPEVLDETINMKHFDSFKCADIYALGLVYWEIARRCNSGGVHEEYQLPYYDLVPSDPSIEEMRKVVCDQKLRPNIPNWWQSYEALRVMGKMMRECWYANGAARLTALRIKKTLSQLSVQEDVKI

Measured: % residual kinase activity

Platelet-derived growth factor receptor beta (Homo sapiens), sequence (P09619 whole entry): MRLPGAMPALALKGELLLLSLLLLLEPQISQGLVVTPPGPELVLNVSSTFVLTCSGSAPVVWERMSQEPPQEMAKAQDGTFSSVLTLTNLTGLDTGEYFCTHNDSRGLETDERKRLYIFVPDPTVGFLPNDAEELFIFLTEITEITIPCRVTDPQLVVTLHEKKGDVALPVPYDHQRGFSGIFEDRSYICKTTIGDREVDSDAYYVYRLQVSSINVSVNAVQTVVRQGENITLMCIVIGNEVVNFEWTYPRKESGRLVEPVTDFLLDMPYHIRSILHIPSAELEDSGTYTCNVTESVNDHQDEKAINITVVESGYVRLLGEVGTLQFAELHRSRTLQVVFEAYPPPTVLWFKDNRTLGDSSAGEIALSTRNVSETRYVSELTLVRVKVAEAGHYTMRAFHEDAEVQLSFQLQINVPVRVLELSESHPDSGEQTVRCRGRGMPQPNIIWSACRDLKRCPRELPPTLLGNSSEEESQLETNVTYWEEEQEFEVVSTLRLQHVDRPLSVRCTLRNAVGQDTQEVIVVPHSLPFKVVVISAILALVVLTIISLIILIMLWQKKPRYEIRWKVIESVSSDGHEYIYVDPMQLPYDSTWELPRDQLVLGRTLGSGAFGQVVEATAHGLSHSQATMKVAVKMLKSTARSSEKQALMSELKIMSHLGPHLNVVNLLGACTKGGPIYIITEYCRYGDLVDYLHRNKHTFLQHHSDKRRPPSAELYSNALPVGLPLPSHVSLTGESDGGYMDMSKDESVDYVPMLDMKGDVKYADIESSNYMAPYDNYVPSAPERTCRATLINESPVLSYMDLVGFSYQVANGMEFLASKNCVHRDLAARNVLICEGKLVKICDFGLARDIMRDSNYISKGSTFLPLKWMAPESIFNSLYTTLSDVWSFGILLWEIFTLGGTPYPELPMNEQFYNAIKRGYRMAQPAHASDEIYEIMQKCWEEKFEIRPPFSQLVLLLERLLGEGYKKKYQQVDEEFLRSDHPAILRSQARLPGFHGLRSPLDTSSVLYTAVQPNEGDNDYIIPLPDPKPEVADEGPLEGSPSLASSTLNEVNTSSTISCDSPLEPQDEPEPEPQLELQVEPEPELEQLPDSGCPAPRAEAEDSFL
MAP kinase-interacting serine/threonine-protein kinase 2 (Homo sapiens), sequence (Q9HBH9 whole entry, looked up): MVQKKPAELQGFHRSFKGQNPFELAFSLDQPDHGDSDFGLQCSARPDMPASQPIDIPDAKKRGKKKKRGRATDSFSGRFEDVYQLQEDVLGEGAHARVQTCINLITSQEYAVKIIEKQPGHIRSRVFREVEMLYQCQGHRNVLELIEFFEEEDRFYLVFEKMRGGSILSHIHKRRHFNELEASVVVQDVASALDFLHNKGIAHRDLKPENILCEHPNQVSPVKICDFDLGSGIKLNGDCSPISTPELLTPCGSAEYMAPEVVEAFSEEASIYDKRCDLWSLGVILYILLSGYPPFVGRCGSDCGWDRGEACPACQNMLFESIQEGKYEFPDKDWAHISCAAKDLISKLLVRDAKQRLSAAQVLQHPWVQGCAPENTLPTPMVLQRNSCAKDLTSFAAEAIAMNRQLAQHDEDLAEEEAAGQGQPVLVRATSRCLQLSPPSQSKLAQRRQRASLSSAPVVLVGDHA
Tyrosine-protein kinase receptor UFO (Homo sapiens), sequence (P30530 whole entry): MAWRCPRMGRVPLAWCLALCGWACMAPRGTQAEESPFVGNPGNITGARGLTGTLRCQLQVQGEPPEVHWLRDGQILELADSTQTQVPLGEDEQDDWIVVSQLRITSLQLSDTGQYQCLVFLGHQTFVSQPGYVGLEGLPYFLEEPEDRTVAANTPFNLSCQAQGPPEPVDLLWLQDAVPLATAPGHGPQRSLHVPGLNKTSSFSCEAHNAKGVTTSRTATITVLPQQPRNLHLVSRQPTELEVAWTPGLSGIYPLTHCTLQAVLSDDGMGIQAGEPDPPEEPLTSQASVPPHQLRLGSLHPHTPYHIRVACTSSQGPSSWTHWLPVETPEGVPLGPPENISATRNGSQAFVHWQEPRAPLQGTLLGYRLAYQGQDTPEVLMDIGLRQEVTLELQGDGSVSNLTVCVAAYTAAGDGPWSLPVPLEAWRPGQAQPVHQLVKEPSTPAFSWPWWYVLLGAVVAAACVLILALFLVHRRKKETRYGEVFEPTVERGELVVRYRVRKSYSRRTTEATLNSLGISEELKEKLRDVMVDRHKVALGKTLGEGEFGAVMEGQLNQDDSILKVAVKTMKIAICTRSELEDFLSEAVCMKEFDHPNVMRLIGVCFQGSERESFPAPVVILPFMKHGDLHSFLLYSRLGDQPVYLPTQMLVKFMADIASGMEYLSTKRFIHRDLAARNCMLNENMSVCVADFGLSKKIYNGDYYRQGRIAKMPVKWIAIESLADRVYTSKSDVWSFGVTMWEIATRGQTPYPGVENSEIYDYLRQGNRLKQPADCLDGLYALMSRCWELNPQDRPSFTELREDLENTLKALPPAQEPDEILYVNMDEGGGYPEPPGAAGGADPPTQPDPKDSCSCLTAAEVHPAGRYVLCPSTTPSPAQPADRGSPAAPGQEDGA

CN1CCN(c2cnc3c(C4CCN(C(=O)c5ccc(OC(F)(F)F)cc5N)CC4)ncnc3c2)CC1 [BAY-885]
inactive: [1] 107% | [2] 108% | [3] 99% | [4] 91% | [5] 104% | [6] 94% | [7] 103% | [8] 96% | [9] 89% | [10] 102% | [11] 104% | [12] 98% | [13] 109% | [14] 98%
